Data from paper PMC2561905 (Biochemistry, 2008).
Read-outs that look alike come from different tables or passages of the source.

How the values were obtained:
Q55V [1] = details: read-out: Operator capture by LLhP and variants (× 10^-7 M hypoxanthine), lacO^1; [co-repressor]mid; SD, n = 3
I48V [2] = details: read-out: Operator capture by LLhP and variants (× 10^-7 M hypoxanthine), lacO^disC; [co-repressor]mid; SD, n = 3
I48V [3] = details: read-out: Operator capture by LLhP and variants (× 10^-7 M hypoxanthine), lacO^1; [co-repressor]mid; SD, n = 3
I48S [4] = details: read-out: Operator capture by LLhP and variants (× 10^-7 M hypoxanthine), lacO^1; [co-repressor]mid; SD, n = 3
LLhP [5] = details: read-out: Operator capture by LLhP and variants (× 10^-7 M hypoxanthine), lacO^sym; [co-repressor]mid; SD, n = 3
I48V [6] = details: read-out: Operator capture by LLhP and variants (× 10^-7 M hypoxanthine), lacO^sym; [co-repressor]mid; SD, n = 3
S61C [7] = details: read-out: Operator capture by LLhP and variants (× 10^-7 M hypoxanthine), lacO^1; [co-repressor]mid; SD, n = 3
I48S [8] = details: read-out: Operator capture by LLhP and variants (× 10^-7 M hypoxanthine), lacO^disC; [co-repressor]mid; SD, n = 3
Q55T [9] = details: read-out: Operator capture by LLhP and variants (× 10^-7 M hypoxanthine), lacO^sym; [co-repressor]mid; SD, n = 3
LLhP [10] = details: read-out: Operator capture by LLhP and variants (× 10^-7 M hypoxanthine), lacO^1; [co-repressor]mid; SD, n = 3
Q55V [11] = details: read-out: Operator capture by LLhP and variants (× 10^-7 M hypoxanthine), lacO^sym; [co-repressor]mid; SD, n = 3
LLhP [12] = details: read-out: Operator capture by LLhP and variants (× 10^-7 M hypoxanthine), lacO^disC; [co-repressor]mid; SD, n = 3
I48S [13] = details: read-out: Operator capture by LLhP and variants (× 10^-7 M hypoxanthine), lacO^sym; [co-repressor]mid; SD, n = 3
S61M [14] = details: read-out: Operator capture by LLhP and variants (× 10^-7 M hypoxanthine), lacO^disC; [co-repressor]mid; SD, n = 3
Q55T [15] = details: read-out: Operator capture by LLhP and variants (× 10^-7 M hypoxanthine), lacO^1; [co-repressor]mid; SD, n = 3
S61C [16] = details: read-out: Operator capture by LLhP and variants (× 10^-7 M hypoxanthine), lacO^disC; [co-repressor]mid; SD, n = 3
Q55V [17] = details: read-out: Operator capture by LLhP and variants (× 10^-7 M hypoxanthine), lacO^disC; [co-repressor]mid; SD, n = 3
S61M [18] = details: read-out: Operator capture by LLhP and variants (× 10^-7 M hypoxanthine), lacO^1; [co-repressor]mid; SD, n = 3
Q55T [19] = details: read-out: Operator capture by LLhP and variants (× 10^-7 M hypoxanthine), lacO^disC; [co-repressor]mid; SD, n = 3
lacO^disC operator DNA = assay: Nitrocellulose filter binding, DNA-binding affinity for lacO^disC; details: LLhP+HX compared with LacI without inducer
lacO^1 operator DNA = assay: Operator capture experiment with lacO^1; format: binding, E. coli; details: curves super-imposable for three different operator sequences
lacO^sym operator DNA = details: LacI without inducer; cited from earlier work

O=c1[nH]cnc2[nH]cnc12 [hypoxanthine, hypoxanthine (HX)]
EC50 (Q55V [1]): 1000 ± 130 nM
EC50 (I48V [2]): 3300 ± 160 nM
EC50 (I48V [3]): 880 ± 60 nM
EC50 (I48S [4]): 950 ± 70 nM
EC50 (LLhP [5]): 550 ± 230 nM
EC50 (I48V [6]): 570 ± 50 nM
EC50 (S61C [7]): 4700 ± 410 nM
EC50 (I48S [8]): 1600 ± 180 nM
EC50 (Q55T [9]): 430 ± 40 nM
EC50 (LLhP [10]): 410 ± 70 nM
EC50 (Q55V [11]): 850 ± 60 nM
EC50 (LLhP [12]): 370 ± 80 nM
EC50 (I48S [13]): 670 ± 60 nM
EC50 (S61M [14]): 11700 ± 1200 nM
EC50 (Q55T [15]): 1000 ± 80 nM
EC50 (S61C [16]): 8000 ± 270 nM
EC50 (Q55V [17]): 2200 ± 80 nM
EC50 (S61M [18]): 5900 ± 340 nM
EC50 (Q55T [19]): 2100 ± 160 nM

B1: LLhP: chimeric repressor: LacI DNA-binding domain, LacI linker and PurR regulatory domain; homodimer (protein)
chain: MKPVTLYDVAEYAGVSYQTVSRVVNQASHVSAKTREKVEAAMAELNYIPNRVAQQLAGKQSLLIGVATSSLALHAPSQIVAAIKSRADQLGASVVVSMVERSGVEACKAAVHNLLAQRVSGLIINYPLDDQDAIAVEAACTNVPALFLDVSDQTPINSIIFSHEDGTRLGVEHLVALGHQQIALLAGPLSSVSARLRLAGWHKYLTRNQIQPIAEREGDWSAMSGFQQTMQMLNEGIVPTAMLVANDQMALGAMRAITESGLRVGADISVVGYDDTEDSSCYIPPLTTIKQDFRLLGQTSVDRLLQLSQGQAVKGNQLLPVSLVKRKTTLAPNATIKDVAKRANVSTTTVSHVINKTRFVAEETRNAVWAAIKELHYSPSAVARSLKVNHTKSIGLLATSSEAAYFAEIIEAVEKNCFQKGYTLILGNAWNNLEKQRAYLSMMAQKRVDGLLVMCSEYPEPLLAMLEEYRHIPMVVMDWGEAKADFTDAVIDNAFEGGYMAGRYLIERGHREIGVIPGPLERNTGAGRLAGFMKAMEEAMIKVPESWIVQGDFEPESGYRAMQQILSQPHRPTAVFCGGDIMAMGALCAADEMGLRVPQDVSLIGYDNVRNARYFTPALTTIHQPKDSLGETAFNMLLDRIVNKREEPQSIEVHPRLIERRSVADGPFRDYRR
Tighter binding of lacO^disC than LacI (lacO^disC operator DNA): ~30 fold
Operator capture mid-point (lacO^1 operator DNA): around 4.4 × 10 ^−7 M hypoxanthine

B2: LacI: lactose repressor protein, naturally-occurring LacI/GalR homologue used for comparison (protein, UniProt P03023 1-360, looked up)
Lactose operon repressor: MKPVTLYDVAEYAGVSYQTVSRVVNQASHVSAKTREKVEAAMAELNYIPNRVAQQLAGKQSLLIGVATSSLALHAPSQIVAAIKSRADQLGASVVVSMVERSGVEACKAAVHNLLAQRVSGLIINYPLDDQDAIAVEAACTNVPALFLDVSDQTPINSIIFSHEDGTRLGVEHLVALGHQQIALLAGPLSSVSARLRLAGWHKYLTRNQIQPIAEREGDWSAMSGFQQTMQMLNEGIVPTAMLVANDQMALGAMRAITESGLRVGADISVVGYDDTEDSSCYIPPLTTIKQDFRLLGQTSVDRLLQLSQGQAVKGNQLLPVSLVKRKTTLAPNTQTASPRALADSLMQLARQVSRLESGQ
Tighter binding of lacO^sym than lacO^1 (lacO^sym operator DNA): ~10 fold
